Results taken from publication PMC6884456, “Supreme activity of gramicidin S against resistant, persistent and biofilm cells of staphylococci and enterococci” (Scientific Reports, 2019).
Where a SMILES comes first, the peptide text is derived from it. Where no end group is shown, it is not given here. [ ]: non-standard residue; d: D form. Orn = NCCC[C@H](N)C(=O)O

Key:
[1] = system: E. faecalis WW6; format: cell-based, Enterococcus faecalis; details: WW6
Experimental: (§5) MBC was determined directly after the MIC evaluation. The 10 µl samples of all 8 dilution rows in the microtiter plates were spotted on square Mueller-Hinton agar plates and incubated overnight at 37 °C and 5% CO2. The MBC was determined as the concentration at which no bacterial colonies were obtained on the two parallel spotted plates.

[2] = system: S. aureus DSM 1104; details: DSM 1104, 24 h
Experimental: (§1) This parameter quantifies the ability of the peptides to prevent biofilm outgrowth.
(§2) After co-incubation with peptides at 37 °C and 5% CO2 without agitation for 24 hours, the planktonic cells were washed, and Crystal violet staining was applied.

[3] = system: E. faecalis TRE2; details: TRE2, 24 h
Experimental: as §1, §2

[4] = system: E. faecalis DSM 2570; details: DSM 2570, 24 h
Experimental: as §1, §2

[5] = system: E. faecalis WW6; details: WW6, 24 h
Experimental: as §1, §2

[6] = system: S. aureus MRSA8 SCV; details: value in parentheses
Experimental: as §1, §2

[7] = system: S. aureus MRSA4; format: cell-based, Staphylococcus aureus; details: MRSA4
Experimental: as §5

[8] = system: S. aureus MRSA3; format: cell-based, Staphylococcus aureus; details: MRSA3
Experimental: as §5

[9] = system: S. aureus DSM 1104 SCV; format: cell-based, Staphylococcus aureus; details: for MIC: S. aureus DSM 1104 SCV, Mueller-Hinton broth, 22 h + 2 h resazurin, 37 °C, 5% CO2, three parallels
Experimental: For the determination of MIC, the standard broth microdilution procedure[45] was used with a slight modification[29]. Since the peptide stock solutions were prepared in 50% ethanol, the first rows of the 96-well microtiter plates were filled with 50 µl of 2 × concentrated Mueller-Hinton broth to reestablish the normal broth concentration after the addition of 50 µl peptide solutions. The MIC was determined as the lowest concentration that inhibited bacterial growth, judging from bacterial respiration in three parallels for each antibiotic. After incubation of the plates for 22 hours, the redox indicator resazurin (Sigma-Aldrich) was added to the wells (20 µl, 80 µM). The plates were incubated another 2 hours at 37 °C and 5% CO2. Respiration was determined as the difference in the absorption at 570 nm to 600 nm, using a microplate reader FLASHScan 550 (Analytik Jena).

[10] = target: human serum albumin (HSA) (Homo sapiens, UniProt P02768); assay: HSA binding, biomimetic chromatography
Experimental: (§3) HPLC was performed on an Agilent 1100 system with an ultraviolet diode array detector. […] Binding measurements were performed using Regis Technologies IAM.PC.DD2 (100 × 4.6 mm), HiChrom Chiralpak-HSA (50 × 3 mm) and HiChrom Chiralpak-AGP (50 × 3 mm) columns. […] Retention times were converted to log k and % binding, using calibration routines described in[72].

[11] = system: subtilisin; details: serine protease isolated from B. subtilis; cited from earlier work
From the text: This intrinsic cell-uptake activity has already been explored in eukaryotic cells to specifically target mitochondria with GS derivatives. In the context of prokaryotic cells, together with the ability to bind certain nucleotides and small phosphorylated molecules[29]–[33], GS thus seems to be capable ...

[12] = system: S. aureus MRSA538 SCV; details: Mueller-Hinton broth, 22 h + 2 h resazurin, 37 °C, 5% CO2, three parallels
Experimental: (§4) For the determination of MIC, the standard broth microdilution procedure[45] was used with a slight modification. Since the peptide stock solutions were prepared in 50% ethanol, the first rows of the 96-well microtiter plates were filled with 50 µl of 2 × concentrated Mueller-Hinton broth to reestablish the normal broth concentration after the addition of 50 µl peptide solutions. The MIC was determined as the lowest concentration that inhibited bacterial growth, judging from bacterial respiration in three parallels for each antibiotic. After incubation of the plates for 22 hours, the redox indicator resazurin (Sigma-Aldrich) was added to the wells (20 µl, 80 µM). The plates were incubated another 2 hours at 37 °C and 5% CO2. Respiration was determined as the difference in the absorption at 570 nm to 600 nm, using a microplate reader FLASHScan 550 (Analytik Jena).

[13] = system: S. aureus MRSA8 SCV; details: Mueller-Hinton broth, 22 h + 2 h resazurin, 37 °C, 5% CO2, three parallels
Experimental: as §4

[14] = system: S. aureus MRSA9 SCV; details: Mueller-Hinton broth, 22 h + 2 h resazurin, 37 °C, 5% CO2, three parallels
Experimental: as §4

[15] = system: α1-acid glycoprotein (AGP); assay: AGP binding, biomimetic chromatography
Experimental: as §3

[16] = system: enterococci; format: cell-based, Enterococcus faecalis, Enterococcus faecium; details: 22 h
[17] = system: human erythrocytes; assay: Haemolysis assay; format: cell-based; details: red cells of human
Experimental: Haemolytic activity was determined with a serial 2-fold dilution assay. Citrate phosphate dextrose-stabilized human erythrocyte suspensions were obtained from Karlsruhe Municipal Hospital. […] The mixture was pelleted (13 000 rpm, 10 min, 4 °C), and the absorbance of the supernatant was recorded at 540 nm vs. reaction buffer. The extent of haemolysis was related to the action of 0.1% Triton X-100 (100%).

[18] = system: Danio rerio embryos; assay: Acute toxicity in Danio rerio embryos; format: in vivo; details: zebrafish embryos 72 hpf, E3 medium, heart beat; for 1h LD50: 1 hour exposure; for 3h LD50: 3 hours exposure
Experimental: Experiments were performed in accordance with the relevant OECD testing guidelines[73] and German animal protection standards. Wild type D. rerio embryos were obtained at the European Zebrafish Resource Center (Karlsruhe). Fertilized eggs (6 hpf) were raised in 4 ml of embryonic medium (E3) at 28 °C until 72 hpf (6-well plate, 20 eggs/well). Embryos were transferred into flat-bottom glass vials (E3, 1 ml, 15–20 embryos/vial). Peptides were added as 20 µl aliquots in 10% dimethyl sulfoxide in serial 2-fold dilutions. Toxicity was expressed as the concentration at which 50% of the embryos were visually observed to die (measured at 1 and 3 hours exposure) by identifying the heart beat.

[19] = system: E. faecalis TRE2; format: cell-based, Enterococcus faecalis; details: TRE2
Experimental: as §5

[20] = physchem
Experimental: as §3

[21] = system: S. aureus DSM 1104; format: cell-based, Staphylococcus aureus; details: DSM 1104
Experimental: as §5

[22] = system: E. faecalis TRE4; format: cell-based, Enterococcus faecalis; details: TRE4
Experimental: as §5

[23] = system: E. faecium VRE2; format: cell-based, Enterococcus faecium; details: VRE2
Experimental: as §5

[24] = system: E. faecalis DSM 2570; format: cell-based, Enterococcus faecalis; details: DSM 2570
Experimental: as §5

[25] = system: S. aureus DSM 1104 SCV; format: cell-based, Staphylococcus aureus; details: value in parentheses
Experimental: as §1, §2

[26] = system: E. faecalis TRE1; format: cell-based, Enterococcus faecalis; details: TRE1
Experimental: as §5

[27] = system: S. aureus MRSA9; format: cell-based, Staphylococcus aureus; details: MRSA9
Experimental: as §5

[28] = system: S. aureus DSM 1104 SCV; format: cell-based, Staphylococcus aureus; details: spotted from MIC plates on Mueller-Hinton agar, overnight, no colonies
Experimental: MBC was determined directly after the MIC evaluation.

[29] = system: E. faecium VRE1; format: cell-based, Enterococcus faecium; details: VRE1
Experimental: as §5

[30] = system: E. faecalis WW4; format: cell-based, Enterococcus faecalis; details: WW4
Experimental: as §5

[31] = system: S. aureus DSM 1104 SCV biofilms; assay: Regrowth from pregrown biofilms on hydroxyapatite discs; format: cell-based, Staphylococcus aureus; details: 30 h on hydroxyapatite discs, 400 µg/ml, 18 h, regrowth 24 h in Todd-Hewitt broth
Experimental: To characterize the viability of the biofilm cells, HAD with pregrown biofilms were exposed for 18 hours to supra-MBIC90 concentrations of the AMP, and - after washing - were placed into fresh TH broth. This procedure serves to determine possible planktonic regrowth from the cells that survived the treatment.
Biofilms were grown on standardized hydroxyapatite discs (3D Biotek). The discs were placed in 24-well microtiter plates and inoculated with a cell suspension from the overnight stationary culture, grown in Todd-Hewitt broth and diluted to OD550 = 0.2. After 30 hours of growth at 37 °C without agitation, the discs were placed for 18 hours in solutions containing 400 µg/ml of peptides, dissolved in 10% dimethyl sulfoxide and 150 mM sodium phosphate buffer (pH 7.2). For the control experiments and conventional antibiotics, pure sodium phosphate buffer was used. After the treatment, discs were washed with sodium phosphate buffer, placed into 1 ml of Todd-Hewitt broth and incubated at 37 °C with agitation at 200 rpm for 24 hours.

human serum albumin (HSA), sequence (P02768 25-609): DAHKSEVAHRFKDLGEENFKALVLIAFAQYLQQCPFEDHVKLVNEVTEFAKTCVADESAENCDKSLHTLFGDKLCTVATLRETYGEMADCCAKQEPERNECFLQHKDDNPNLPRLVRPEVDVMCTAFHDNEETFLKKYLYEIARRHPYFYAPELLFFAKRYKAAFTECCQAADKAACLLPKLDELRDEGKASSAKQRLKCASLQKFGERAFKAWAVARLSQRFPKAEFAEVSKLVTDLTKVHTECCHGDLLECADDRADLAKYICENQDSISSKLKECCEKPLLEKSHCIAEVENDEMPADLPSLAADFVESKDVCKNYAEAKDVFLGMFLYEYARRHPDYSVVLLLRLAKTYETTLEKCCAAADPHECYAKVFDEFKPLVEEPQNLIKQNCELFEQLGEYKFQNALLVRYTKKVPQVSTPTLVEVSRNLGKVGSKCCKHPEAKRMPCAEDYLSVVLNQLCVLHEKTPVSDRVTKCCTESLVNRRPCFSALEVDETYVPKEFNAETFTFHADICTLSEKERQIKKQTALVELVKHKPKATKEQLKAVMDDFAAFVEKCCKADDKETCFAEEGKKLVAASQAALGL

CC(C)C[C@@H]1NC(=O)[C@H](CCCN)NC(=O)[C@H](C(C)C)NC(=O)[C@@H]2CCCN2C(=O)[C@@H](Cc2ccccc2)NC(=O)[C@H](CC(C)C)NC(=O)[C@H](CCCN)NC(=O)[C@H](C(C)C)NC(=O)[C@@H]2CCCN2C(=O)[C@@H](Cc2ccccc2)NC1=O [GS, gramicidin S] (cyclo(V[Orn]L[dF]PV[Orn]L[dF]P))
MBC [1]: 16 (14) µg/ml | MBIC90 [2]: 4 µM | MBIC90 [3]: 14 µM | MBIC90 [4]: 7 µM | MBIC90 [5]: 14 µM | MBIC90 [6]: 4 µM | MBC [7]: 16 (14) µg/ml | MBC [8]: 16 (14) µg/ml | MIC [9]: 4 (4) µg/ml | Bound HSA ([10]; Chiralpak-HSA column, 50 mM ammonium acetate pH 7.4, 0–35% 2-propanol gradient, calibrated retention times, UV): 97.45% | log k HSA ([10]; Chiralpak-HSA column, pH 7.4, 0–35% 2-propanol gradient, value in parentheses): 1.44 | Degradation by protease [11]: effective in degrading | MIC [12]: 8 (7) µg/ml | MIC [13]: 4 (4) µg/ml | MIC [14]: 4 (4) µg/ml | Bound AGP ([15]; Chiralpak-AGP column, 50 mM ammonium acetate pH 7.4, 0–35% 2-propanol gradient, calibrated retention times, UV): 92.92% | log k AGP ([15]; Chiralpak-AGP column, pH 7.4, 0–35% 2-propanol gradient, value in parentheses): 1.06 | MIC against enterococci [16]: approximately 8 µg/ml | Haemolysis at 5 μM [17]: 7% | Haemolysis at 10 μM [17]: 54% | 1h LD50 [18]: 8 µg/mL | 3h LD50 [18]: 5 µg/mL | MBC [19]: 16 (14) µg/ml | chromatographic logD ([20]; pH 2.6): 1.5 | chromatographic logD ([20]; pH 7.4): 3.51 | chromatographic logD ([20]; pH 10.5): 7.52 | MBC [21]: 8 (7) µg/ml | MBC [22]: 8 (7) µg/ml | MBC [23]: 8 (7) µg/ml | MBC [24]: 8 (7) µg/ml | MBIC90 [25]: 14 µM | MBC [26]: 16 (14) µg/ml | MBC [27]: 16 (14) µg/ml | MBC [28]: 8 (7) µg/ml | MBC [29]: 8 (7) µg/ml | MBC [30]: 16 (14) µg/ml

FVQWFSKFLGRIL-NH2 [TL, temporin L]
MBC [1]: 32 (20) µg/ml | MBIC90 [2]: 5 µM | MBIC90 [3]: 78 µM | MBIC90 [4]: 39 µM | MBIC90 [5]: 78 µM | MBIC90 [6]: 5 µM | MBC [7]: 32 (20) µg/ml | MBC [8]: 32 (20) µg/ml | MIC [9]: 8 (5) µg/ml | log k HSA ([10]; pH 7.4): 1.68 | MIC [13]: 8 (5) µg/ml | MIC [14]: 8 (5) µg/ml | log k AGP ([15]; pH 7.4): 1.23 | Haemolysis at 5 μM [17]: 57% | Haemolysis at 10 μM [17]: 99% | 1h LD50 [18]: 7 µg/mL | 3h LD50 [18]: 7 µg/mL | MBC [19]: 32 (20) µg/ml | chromatographic logD ([20]; pH 2.6): 0.65 | chromatographic logD ([20]; pH 7.4): 2.92 | chromatographic logD ([20]; pH 10.5): 4.95 | MBC [21]: 16 (10) µg/ml | MBC [22]: 32 (20) µg/ml | MBC [23]: 16 (10) µg/ml | MBC [24]: 16 (10) µg/ml | MBIC90 [25]: 20 µM | MBC [26]: 32 (20) µg/ml | MBC [27]: 32 (20) µg/ml | MBC [29]: 16 (10) µg/ml | MBC [30]: 32 (20) µg/ml

Cc1onc(-c2ccccc2)c1C(=O)N[C@@H]1C(=O)N2[C@@H]1SC(C)(C)[C@@H]2C(=O)O [OXA, oxacillin]
Concentration effective against the planktonic cells (SI Table S1) ([9]; DSM 1104 SCV planktonic cells, standard broth microdilution): 0.25 µg/mL | Biofilm regrowth after treatment [31]: tolerant
